Test results: patent US20160115225A1, “Methods of Reducing Methylglyoxal (MGO) Modification of Recombinant Proteins in Cell Culture” (AbbVie Inc., priority 2014, published 2016)

Test system: adalimumab producing cell line 2
Test: Extracellular MGO measurement in cell culture supernatant, cell line 2
Format: cell-based
Details: Example 4; for MGO concentration level: 0.15 g/l 2DDG
Description: About 20 ml of cell free supernatant were collected in some cases for measurement of extracellular MGO in the supernatant. For this, a 3,000 RPM 30 min centrifugation was performed to remove the cells.
Remove protein: After quick thawing covered with aluminum, cell culture samples (10 mL) were filtrated by a 3 kDa or 10 kDa membrane filter (Millipore, UFC900369) until the solution left inside the filter was around 1 mL, the flow through that was used for MGO analysis.
Derivative MGO: 750 uL of flow through, 75 uL of 1 M NaH2PO4 buffer (pH 8), 50 mM 1,2 diaminobenzene (Aldrich P/N: P23938), and 600 uL of MilliQ water were mixed well and incubated at 60° C. for 3 hours. After cooling down and centrifuging at 10000 rpm for 3 minutes, the sample solution was ready to be injected.
External Standards to Quantitate MGO: external standards were used to quantitate MGO in cell culture. Based on the following table, the standard solutions were prepared. The standard solutions were incubated at 60° C. for 3 hours. After cooling down, the standard solutions were analyzed to get an external standard curve. The concentration of MGO in culture was calculated based on the external standard curve. (MGO: CMP Biomedicals, P/N: 155558; GO: Fisher Scientifics, P/N: S25698). 10 mM and 1 mM MGO were diluted from the MGO and 1000 uM and 10 uM GO were diluted from the GO. The diluent was water.
HPLC Method: A reverse phase HPLC method was used for MGO analysis. The parameters are listed in the method information table and gradient table below.
The measured concentration based on external quantitation multiplied by two is the final MGO concentration.
The objective of this experiment was to further evaluate the control of MGO synthesis/MGO protein modification through reduced glucose consumption in a different cell line, Cell line 2. There were two parts to this experiment. In one part, different levels of 2DDG were supplemented (0.05 g/l, 0.15 g/l) similar to the experimental design in Example 2. Prior to this experiment, a study was performed in shake flask culture to evaluate the dose effect of 2DDG on this cell line (data not shown). In the other part, different glucose profiles were maintained in the culture through the feedback control of glucose feed amounts. […] As described in Example 3, extracellular MGO quantification was performed for day 7, 8 and 9 for the samples below and percentage of acidic species were quantified using WCX-10 analysis post protein A of cell culture harvests.
The cells were grown to maximum viable cell densities (VCD) in the range of 10-12×10^6 cells/ml for the different conditions tested. […] Samples were then subsequently analyzed using Lys-C peptide mapping for quantification of MGO modification post protein A purification. […]

O=CC[C@@H](O)[C@H](O)[C@H](O)CO [Test 2DDG, 2-Deoxy-D-Glucose] was tested, and the MGO concentration profile (0.05 g/l 2DDG, versus control) was “No significant difference”, the MGO concentration level (day 7, control 28 μM) was 14 µM and the MGO concentration level (day 8, control 64 μM) was 16 µM. For the same compound, the MGO concentration level (day not printed (third value, after day 7 and day 8), control 157 μM (day 9)) was 20 µM.
